Test results from patent US20230373939A1 (VERTEX PHARMACEUTICALS INCORPORATED, priority 2020, published 2023).
Like-named read-outs stand apart in the source and are kept apart here.

Assays:
F508del in NIH 3T3 cells = molecular target: T1, F508del in NIH 3T3 cells (Homo sapiens, UniProt P13569, DEL508-508); test: 3T3 assay: membrane potential optical assay for F508del correction; format: cell-based; conditions: for EC50: read-out: 3T3 EC50
T1 construct: expressed in transfected cells
How it was run: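 NIH 3T3 mouse fibroblasts stably expressing F508del were incubated with corrector compounds at a range of concentrations for 16–24 h at 37 °C, then loaded with a voltage-sensing redistribution dye. Channel activity was read as membrane-potential change on FLIPR after a single addition of forskolin with a chloride-free (gluconate) bath creating a Cl⁻ gradient.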

CFTR = CFTR (Homo sapiens, UniProt P13569); test: Standard Ussing Chamber Assay for CFTR potentiator activity; format: cell-based
Protocol: tert-Butyl N-[(6R,12R)-6-benzyloxy-12-methyl-6,15-bis(trifluoromethyl)-13,19-dioxa-3,4,18-triazatricyclo[12.3.1.12,5]nonadeca-1(18),2,4,14,16-pentaen-17-yl]-N-tert-butoxycarbonyl-carbamate (8.6 g, 11.77 mmol) was dissolved in ethanol (172 mL) then the flask was cycled 3 times between vacuum/nitrogen. Treated the mixture with 10% Pd/C (50% water wet, 1.8 g of 5% w/w, 0.8457 mmol) then cycled 3 times between vacuum/nitrogen and 3 times between vacuum/hydrogen and then stirred vigorously under hydrogen (balloon) at room temperature for 18 h. The mixture was cycled 3 times between vacuum/nitrogen, filtered over Celite washing with ethanol and then the filtrate was evaporated to give 7.3 g of tert-butyl N-tert-butoxycarbonyl-N-[(6R,12R)-6-hydroxy-12-methyl-6,15-bis(trifluoromethyl)-13,19-dioxa-3,4,18-triazatricyclo[12.3.1.12,5]nonadeca-1(18),2,4,14,16-pentaen-17-yl]carbamate an off-white solid. 1H NMR and MS confirmed the expected product. CFTR modulatory activity was confirmed using a standard Ussing Chamber Assay for CFTR potentiator activity.

[1] = NIH3T3, read-out: 3T3 Max Activity (%)
[2] = NIH3T3, NIH 3T3 cells, F508del, read-out: 3T3 Max Activity (%)

T1 sequence (P13569 with tags, fused parts or gaps DEL508-508): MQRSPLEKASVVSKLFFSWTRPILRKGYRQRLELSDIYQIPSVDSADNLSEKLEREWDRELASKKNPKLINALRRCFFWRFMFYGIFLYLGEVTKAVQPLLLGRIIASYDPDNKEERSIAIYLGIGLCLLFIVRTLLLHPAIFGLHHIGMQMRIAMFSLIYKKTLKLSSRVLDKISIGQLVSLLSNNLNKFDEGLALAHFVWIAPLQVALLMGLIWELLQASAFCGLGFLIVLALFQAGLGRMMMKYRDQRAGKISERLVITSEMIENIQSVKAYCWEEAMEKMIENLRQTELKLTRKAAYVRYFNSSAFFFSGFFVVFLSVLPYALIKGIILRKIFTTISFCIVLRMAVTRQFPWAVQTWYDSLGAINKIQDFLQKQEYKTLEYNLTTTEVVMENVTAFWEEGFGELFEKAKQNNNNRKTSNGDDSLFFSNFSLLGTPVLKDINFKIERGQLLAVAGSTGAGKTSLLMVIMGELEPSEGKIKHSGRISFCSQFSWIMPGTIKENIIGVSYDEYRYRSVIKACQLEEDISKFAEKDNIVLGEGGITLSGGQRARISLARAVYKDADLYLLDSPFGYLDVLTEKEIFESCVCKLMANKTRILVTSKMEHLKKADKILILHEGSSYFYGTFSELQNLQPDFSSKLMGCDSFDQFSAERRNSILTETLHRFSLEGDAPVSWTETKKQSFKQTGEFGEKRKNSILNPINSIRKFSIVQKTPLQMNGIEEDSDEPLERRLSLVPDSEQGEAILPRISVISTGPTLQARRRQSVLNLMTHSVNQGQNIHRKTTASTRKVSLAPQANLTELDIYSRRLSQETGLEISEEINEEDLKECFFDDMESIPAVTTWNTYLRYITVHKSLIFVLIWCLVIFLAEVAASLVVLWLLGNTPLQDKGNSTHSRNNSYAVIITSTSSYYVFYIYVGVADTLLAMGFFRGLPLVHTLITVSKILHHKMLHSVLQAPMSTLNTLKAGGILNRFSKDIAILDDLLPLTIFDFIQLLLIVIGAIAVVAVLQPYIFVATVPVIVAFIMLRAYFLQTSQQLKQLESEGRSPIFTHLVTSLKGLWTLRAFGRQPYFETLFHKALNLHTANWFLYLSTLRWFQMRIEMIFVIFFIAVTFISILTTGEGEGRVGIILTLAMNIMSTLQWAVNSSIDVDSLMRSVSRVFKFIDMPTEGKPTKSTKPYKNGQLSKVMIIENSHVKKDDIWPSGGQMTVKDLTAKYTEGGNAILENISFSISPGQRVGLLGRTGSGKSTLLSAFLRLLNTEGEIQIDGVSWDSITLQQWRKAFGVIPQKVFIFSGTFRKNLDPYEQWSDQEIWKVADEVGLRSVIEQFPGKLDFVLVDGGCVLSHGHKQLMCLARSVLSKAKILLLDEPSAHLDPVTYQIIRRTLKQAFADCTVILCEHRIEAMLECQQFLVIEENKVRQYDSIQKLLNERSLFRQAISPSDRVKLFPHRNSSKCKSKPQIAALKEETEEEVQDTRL
Chain of CFTR (P13569 whole entry, species assumed): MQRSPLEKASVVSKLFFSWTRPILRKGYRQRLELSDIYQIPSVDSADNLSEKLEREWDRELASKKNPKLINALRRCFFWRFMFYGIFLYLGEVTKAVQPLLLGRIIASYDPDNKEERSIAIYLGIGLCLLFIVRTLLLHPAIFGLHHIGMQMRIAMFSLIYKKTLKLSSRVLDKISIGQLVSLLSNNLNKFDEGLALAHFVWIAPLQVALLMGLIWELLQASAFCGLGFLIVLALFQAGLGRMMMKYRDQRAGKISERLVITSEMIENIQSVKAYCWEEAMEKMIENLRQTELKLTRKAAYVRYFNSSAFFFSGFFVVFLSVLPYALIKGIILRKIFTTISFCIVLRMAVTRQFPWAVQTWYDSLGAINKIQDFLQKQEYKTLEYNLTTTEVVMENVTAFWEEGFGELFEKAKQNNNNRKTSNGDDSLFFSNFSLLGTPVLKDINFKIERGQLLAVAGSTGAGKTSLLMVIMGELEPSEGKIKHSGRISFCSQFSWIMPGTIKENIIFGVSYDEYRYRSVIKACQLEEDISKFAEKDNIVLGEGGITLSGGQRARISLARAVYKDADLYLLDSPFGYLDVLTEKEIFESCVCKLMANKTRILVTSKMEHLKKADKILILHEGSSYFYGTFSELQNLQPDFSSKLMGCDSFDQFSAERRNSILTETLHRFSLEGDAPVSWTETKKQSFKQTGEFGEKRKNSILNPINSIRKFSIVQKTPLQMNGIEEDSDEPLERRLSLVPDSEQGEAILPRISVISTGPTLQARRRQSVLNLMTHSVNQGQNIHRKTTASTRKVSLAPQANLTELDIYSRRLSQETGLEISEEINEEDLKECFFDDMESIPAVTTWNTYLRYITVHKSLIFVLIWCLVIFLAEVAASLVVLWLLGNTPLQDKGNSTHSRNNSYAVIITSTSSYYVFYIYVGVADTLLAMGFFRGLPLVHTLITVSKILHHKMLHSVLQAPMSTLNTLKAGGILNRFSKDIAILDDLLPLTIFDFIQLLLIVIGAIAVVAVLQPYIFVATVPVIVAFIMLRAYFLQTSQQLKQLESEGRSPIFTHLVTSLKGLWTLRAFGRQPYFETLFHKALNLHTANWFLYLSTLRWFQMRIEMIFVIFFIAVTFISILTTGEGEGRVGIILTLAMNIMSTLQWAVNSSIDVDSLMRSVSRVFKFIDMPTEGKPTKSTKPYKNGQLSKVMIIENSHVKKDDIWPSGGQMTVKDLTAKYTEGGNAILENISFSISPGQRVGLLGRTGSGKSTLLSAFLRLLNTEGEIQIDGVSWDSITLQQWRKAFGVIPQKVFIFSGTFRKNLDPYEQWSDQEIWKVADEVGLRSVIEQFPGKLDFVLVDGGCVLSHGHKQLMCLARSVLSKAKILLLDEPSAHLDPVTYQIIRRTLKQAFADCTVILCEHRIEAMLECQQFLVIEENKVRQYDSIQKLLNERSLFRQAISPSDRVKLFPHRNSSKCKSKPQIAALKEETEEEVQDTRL

| EC50 (F508del in NIH 3T3 cells; NIH 3T3 cells, F508del) [µM] | Emax (F508del in NIH 3T3 cells; [2]) [%] | CFTR modulatory activity (CFTR potentiator activity) (CFTR) | SMILES | Emax (F508del in NIH 3T3 cells; [1]) [%] |
| --- | --- | --- | --- | --- |
| 3 to 30 | > 60 |  | CCc1sc(NS(=O)(=O)c2ccccc2)nc1-c1ccccc1 [Compound 21, N-(5-ethyl-4-phenyl-thiazol-2-yl)benzenesulfonamide] |  |
|  | < 30 |  | O=S(=O)(Nc1nn(-c2cccc(Cl)c2)cc1-c1ccc(Cl)cc1)c1ccccc1 [Compound 88, N-[1-(3-chlorophenyl)-4-(4-chlorophenyl)pyrazol-3-yl]benzenesulfonamide] |  |
|  | < 30 |  | COc1ccccc1-c1cn(Cc2ccccc2)nc1NS(=O)(=O)c1ccccc1 [Compound 113, N-[1-benzyl-4-(2-methoxyphenyl)pyrazol-3-yl]benzenesulfonamide] |  |
|  | < 30 |  | Cc1cc(C)c(-n2cc(Br)c(NS(=O)(=O)c3ccccc3)n2)c(C)c1 [Compound 99, N-[4-bromo-1-(2,4,6-trimethylphenyl)pyrazol-3-yl]benzenesulfonamide] |  |
| 1 to 3 | > 60 |  | Cc1cc(C)c(-n2nc(NS(=O)(=O)c3ccccc3)cc2CC(C)C)c(C)c1 [Compound 52, N-[5-isobutyl-1-(2,4,6-trimethylphenyl)pyrazol-3-yl]benzenesulfonamide] |  |
|  | < 30 |  | Cc1cc(C)c(-n2cc(C(C)C)c(NS(=O)(=O)c3ccccc3)n2)c(C)c1 [Compound 98] |  |
|  | < 30 |  | CC(C)Cc1cn(-c2ccccc2)nc1NS(=O)(=O)c1ccccc1 [Compound 82, N-(4-isobutyl-1-phenyl-pyrazol-3-yl)benzenesulfonamide] |  |
|  |  | confirmed | C[C@@H]1CCCCC[C@](O)(C(F)(F)F)C2=NN=C(O2)c2nc(c(C(F)(F)F)cc2N)O1 [(6R,12R)-17-Amino-12-methyl-6,15-bis(trifluoromethyl)-13,19-dioxa-3,4,18-triazatricyclo[12.3.1.12,5]nonadeca-1(18),2,4,14,16-pentaen-6-ol] |  |
| < 1 | 30 to 60 |  | Cc1cc(C)c(-n2nc(NS(=O)(=O)c3ccccc3)cc2-c2cccc(Oc3ccccc3)c2)c(C)c1 [Compound 54, N-[5-(3-phenoxyphenyl)-1-(2,4,6-trimethylphenyl)pyrazol-3-yl]benzenesulfonamide] |  |
| 1 to 3 | 30 to 60 |  | Cc1nc(NS(=O)(=O)c2ccccc2)sc1-c1csc(Nc2ccccn2)n1 [Compound 30, N-[4-methyl-5-[2-(2-pyridylamino)thiazol-4-yl]thiazol-2-yl]benzenesulfonamide] |  |
|  | < 30 |  | Cn1cc(S(=O)(=O)Nc2nn(-c3ccccc3)cc2Cc2ccccc2)cn1 [Compound 72, N-(4-benzyl-1-phenyl-pyrazol-3-yl)-1-methyl-pyrazole-4-sulfonamide] |  |
| 3 to 30 | 30 to 60 |  | COc1ccccc1Nc1nc(-c2sc(NS(=O)(=O)c3ccccc3)nc2C)cs1 [Compound 29, N-[5-[2-(2-methoxyanilino)thiazol-4-yl]-4-methyl-thiazol-2-yl]benzenesulfonamide] |  |
| 1 to 3 | 30 to 60 |  | CCOC(=O)c1nc(NS(=O)(=O)c2ccccc2)sc1-c1ccccc1 [Compound 41, ethyl 2-(benzenesulfonamido)-5-phenyl-thiazole-4-carboxylate] |  |
| < 1 | > 60 |  | CCOC(=O)C1=C(c2ccccc2)N=C(NS(=O)(=O)c2ccccc2)SC1c1ccccc1 (stereo not shown) [Compound 116, ethyl 2-(benzenesulfonamido)-4,6-diphenyl-6H-1,3-thiazine-5-carboxylate] |  |
| 1 to 3 | 30 to 60 |  | Cc1cccc(C)c1-c1cnc(NCc2ccccc2)c(NS(=O)(=O)c2ccccc2)n1 [Compound 119, N-[3-(benzylamino)-6-(2,6-dimethylphenyl)pyrazin-2-yl]benzenesulfonamide] |  |
| 3 to 30 | 30 to 60 |  | Cc1sc(NS(=O)(=O)c2ccccc2)nc1-c1ccc2c(c1)OCCO2 [Compound 22, N-[4-(2,3-dihydro-1,4-benzodioxin-6-yl)-5-methyl-thiazol-2-yl]benzenesulfonamide] |  |
|  | < 30 |  | O=S(=O)(Nc1ccnn1CC1CC1)c1ccccc1 [Compound 78, N-[2-(cyclopropylmethyl)pyrazol-3-yl]benzenesulfonamide] |  |
|  | < 30 |  | Cc1ccc(-n2nc(NS(=O)(=O)c3ccccc3)cc2C)cc1 [Compound 100, N-[5-methyl-1-(p-tolyl)pyrazol-3-yl]benzenesulfonamide] |  |
|  | < 30 |  | O=S(=O)(Nc1cc(Cc2ccccc2)n(-c2ccccc2)n1)c1ccccc1 [Compound 71, N-(5-benzyl-1-phenyl-pyrazol-3-yl)benzenesulfonamide] |  |
|  |  |  | O=S(=O)(Nc1ccn(Cc2ccccc2)n1)c1ccccc1 [Compound 102, N-(1-benzylpyrazol-3-yl)benzenesulfonamide] | < 30 |

| SMILES | EC50 (F508del in NIH 3T3 cells; NIH 3T3 cells, F508del) [µM] | Emax (F508del in NIH 3T3 cells; [2]) [%] | CFTR modulatory activity (CFTR potentiator activity) (CFTR) | Emax (F508del in NIH 3T3 cells; [1]) [%] |
| --- | --- | --- | --- | --- |
| O=S(=O)(Nc1onc(-c2ccc(Cl)cc2)c1-c1ccc(Cl)cc1)c1ccccc1 [Compound 1, N-[3,4-bis(4-chlorophenyl)isoxazol-5-yl]benzenesulfonamide] | 1 to 3 |  |  | 30 to 60 |
| O=S(=O)(Nc1nn(-c2cccc(Cl)c2)cc1-c1ccccc1)c1ccccc1 [Compound 69, N-[1-(3-chlorophenyl)-4-phenyl-pyrazol-3-yl]benzenesulfonamide] | 1 to 3 |  |  | 30 to 60 |
| Cc1ccc(-c2nc(NS(=O)(=O)c3ccccc3)sc2-c2ccc(C)cc2)cc1 [Compound 10, N-[4,5-bis(p-tolyl)thiazol-2-yl]benzenesulfonamide] | < 1 |  |  | 30 to 60 |
| Cc1cccc(-c2cc(NS(=O)(=O)c3ccccc3)nn2-c2c(C)cc(C)cc2C)c1 [Compound 48, N-[5-(m-tolyl)-1-(2,4,6-trimethylphenyl)pyrazol-3-yl]benzenesulfonamide] | < 1 |  |  | > 60 |
